# Measurements from US12084445B2, “Broad-spectrum carbapenems” (VenatoRx Pharmaceuticals, Inc., priority 2018, dated 2024).
# Assays:
# Type in all cases: cell-based
# [1] = system: P. aeruginosa ATCC 27853 (wild-type/QC strain); test: broth microdilution MIC assay, P. aeruginosa ATCC 27853; conditions: Pseudomonas aeruginosa, ATCC27853; Table 5; P. aeruginosa 27853; read-out: P. aeruginosa 27853 MIC
# Protocol: (§1) To determine the ability of test compounds to potentiate the inhibition of the growth of bacterial strains, classic cell-based broth microdilution MIC assays were employed. MIC assays are performed according to CLSI methods except where otherwise noted (CLSI, 2011 and CLSI, 2009). The reference strains S. aureus ATCC 29213 (methicillin sensitive), S. aureus ATCC 33591 (methicillin-resistant), E. coli ATCC 25922 (wild-type/QC strain), P. aeruginosa ATCC 27853 (wild-type/QC strain), and the clinical isolate P. aeruginosa PA 8 were used to determine the ability of the exemplary carbapenem compounds to inhibit bacterial growth. An expanded panel of methicillin resistance S. aureus (MRSA) and Pseudomonas was also used to determine the ability of exemplary carbapenem compounds to inhibit bacterial growth across a broader representation of those species. To determine activity in MRSA and in addition to S. aureus ATCC 33591, S. aureus USA 300, USA 400 and USA 600, some of the most common clones found to cause human infection, were also used. To further gauge the impact on the carbapenem compounds due to various resistance mechanisms in Pseudomonas, the following strains were included: P. aeruginosa 35151 (hyper-permeable strain), P. aeruginosa AmexAB-OprM (an efflux pump knockout), and P. aeruginosa PA 3 (a clinical isolate of reduced carbapenem susceptibility). Briefly, cryo-preserved bacterial cultures of clinical strains are streaked for isolation on appropriate agar medium, in this case Mueller Hinton II agar. Following incubation to allow formation of colonies, these plates are sealed with parafilm and stored refrigerated for up to two weeks. For preparation of assay inocula and to ensure low variability, at least 5 colonies are picked from the agar plates with an inoculating loop and aseptically transferred to a culture tube containing 3 mL of Mueller-Hinton Broth (supplemented with divalent cations to required levels based on Manufacturers' specification). The broth culture is grown for 3-5 hours at 37° C. with shaking at 200 rpm. Meanwhile, 2-fold serial dilutions of test compounds are conducted in a 96 well plate with a final volume of 75 μL per well at 2-fold the final desired concentration. After the dilution plates are set up the growing cultures are then diluted in a cuvette containing MH II broth and the optical density is measured at 600 nm. Inocula are diluted such that 75 μL of this culture in Mueller-Hinton Broth results in a starting bacterial concentration of 5×10^5 CFU/mL when added to the dilution plates. The plates are incubated 16-20 hours at 37° C. The MIC is read visually as the lowest concentration well with no bacterial growth.
# (§2) Representative results are shown in Tables 3, 4, and 5 where A represents an MIC>32 μg/mL, B represents an MIC between 8 and 32 μg/mL inclusive, C represents an MIC between 1 and 4 μg/mL inclusive, and D represents an MIC of <1 μg/mL. NT=Not Tested.
# [2] = system: E. coli ATCC 25922 (wild-type/QC strain); test: broth microdilution MIC assay, E. coli ATCC 25922; conditions: Escherichia coli, ATCC25922; Table 4; E. coli 25922; read-out: E. coli 25922 MIC
# Protocol: as §1, §2
# [3] = system: P. aeruginosa 35151 (hyper-permeable strain); test: broth microdilution MIC assay, P. aeruginosa 35151; conditions: Pseudomonas aeruginosa, read-out: P. aeruginosa 35151 MIC
# Protocol: as §1, §2
# [4] = system: S. aureus USA 300; test: broth microdilution MIC assay, S. aureus USA 300; conditions: Staphylococcus aureus; Table 4; S. aureus USA300; read-out: S. aureus USA300 MIC
# Protocol: as §1, §2
# [5] = system: S. aureus ATCC 33591 (methicillin-resistant); test: broth microdilution MIC assay, S. aureus ATCC 33591; conditions: Staphylococcus aureus, ATCC33591; Table 4; S. aureus 33591; read-out: S. aureus 33591 MIC
# Protocol: as §1, §2
# [6] = system: P. aeruginosa ΔmexAB-OprM (an efflux pump knockout); test: broth microdilution MIC assay, P. aeruginosa ΔmexAB-OprM; conditions: Pseudomonas aeruginosa, 20 h, read-out: P. aeruginosa ΔmexAB-OprM MIC
# Protocol: as §1, §2
# [7] = system: S. aureus USA600; test: broth microdilution MIC assay, S. aureus USA 600; conditions: Staphylococcus aureus; Table 4; S. aureus USA600; read-out: S. aureus USA600 MIC
# Protocol: as §1, §2
Compound,MIC [1] [µg/mL],MIC [2] [µg/mL],MIC [3] [µg/mL],MIC [4] [µg/mL],MIC [5] [µg/mL],MIC [6] [µg/mL],MIC [7] [µg/mL]
"C[C@@H](O)[C@H]1C(=O)N2C(C(=O)O)=C(SC3CN(CC4CCCNC4)C3)[C@H](C)[C@H]12 (stereo partly drawn) [Example 57, (4R,5S,6S)-6-((R)-1-hydroxyethyl)-4-methyl-7-oxo-3-((1-(piperidin-3-ylmethyl)azetidin-3-yl)thio)-1-azabicyclo[3.2.0]hept-2-ene-2-carboxylic acid]",1 to 4,< 1,< 1,1 to 4,8 to 32,1 to 4,1 to 4
"C[C@@H](O)[C@H]1C(=O)N2C(C(=O)O)=C(SC3CN(C[C@@H]4CCNC4)C3)[C@H](C)[C@H]12 [Example 58, (4R,5S,6S)-6-((R)-1-hydroxyethyl)-4-methyl-7-oxo-3-((1-(((R)-pyrrolidin-3-yl)methyl)azetidin-3-yl)thio)-1-azabicyclo[3.2.0]hept-2-ene-2-carboxylic acid]",1 to 4,< 1,< 1,1 to 4,1 to 4,1 to 4,1 to 4
"C[C@@H](O)[C@H]1C(=O)N2C(C(=O)O)=C(SC3CN(C[C@H]4CCNC4)C3)[C@H](C)[C@H]12 [Example 59, (4R,5S,6S)-6-((R)-1-hydroxyethyl)-4-methyl-7-oxo-3-((1-(((S)-pyrrolidin-3-yl)methyl)azetidin-3-yl)thio)-1-azabicyclo[3.2.0]hept-2-ene-2-carboxylic acid]",1 to 4,< 1,< 1,1 to 4,1 to 4,1 to 4,1 to 4
"C[C@@H](O)[C@H]1C(=O)N2C(C(=O)O)=C(SC3CN(C[C@H]4CNCCO4)C3)[C@H](C)[C@H]12 [Example 60, (4R,5S,6S)-6-((R)-1-hydroxyethyl)-4-methyl-3-((1-(((R)-morpholin-2-yl)methyl)azetidin-3-yl)thio)-7-oxo-1-azabicyclo[3.2.0]hept-2-ene-2-carboxylic acid]",8 to 32,< 1,< 1,1 to 4,8 to 32,1 to 4,1 to 4
"C[C@@H](O)[C@H]1C(=O)N2C(C(=O)O)=C(SC3CN(C[C@@H]4CNCCO4)C3)[C@H](C)[C@H]12 [Example 61, (4R,5S,6S)-6-((R)-1-hydroxyethyl)-4-methyl-3-((1-(((S)-morpholin-2-yl)methyl)azetidin-3-yl)thio)-7-oxo-1-azabicyclo[3.2.0]hept-2-ene-2-carboxylic acid]",1 to 4,< 1,< 1,1 to 4,8 to 32,1 to 4,1 to 4
"C[C@@H](O)[C@H]1C(=O)N2C(C(=O)O)=C(SC3CN(C[C@H]4CC[C@H](N)CC4)C3)[C@H](C)[C@H]12 [Example 62, (4R,5S,6S)-3-((1-(((1r,4R)-4-aminocyclohexyl)methyl)azetidin-3-yl)thio)-6-((R)-1-hydroxyethyl)-4-methyl-7-oxo-1-azabicyclo[3.2.0]hept-2-ene-2-carboxylic acid]",1 to 4,< 1,< 1,1 to 4,1 to 4,1 to 4,< 1
"C[C@@H](O)[C@H]1C(=O)N2C(C(=O)O)=C(S[C@@H]3CCN(CC4CNCCS4)C3)[C@H](C)[C@H]12 (stereo partly drawn) [Example 63, (4R,5S,6S)-6-((R)-1-hydroxyethyl)-4-methyl-7-oxo-3-(((3R)-1-(thiomorpholin-2-ylmethyl)pyrrolidin-3-yl)thio)-1-azabicyclo[3.2.0]hept-2-ene-2-carboxylic acid]",8 to 32,< 1,< 1,1 to 4,1 to 4,1 to 4,1 to 4
"C[C@@H](O)[C@H]1C(=O)N2C(C(=O)O)=C(SC3CN(C[C@H]4CC[C@@H](N)CC4)C3)[C@H](C)[C@H]12 [Example 64, (4R,5S,6S)-3-((1-(((1s,4S)-4-aminocyclohexyl)methyl)azetidin-3-yl)thio)-6-((R)-1-hydroxyethyl)-4-methyl-7-oxo-1-azabicyclo[3.2.0]hept-2-ene-2-carboxylic acid]",1 to 4,< 1,< 1,< 1,1 to 4,1 to 4,< 1
"C[C@@H](O)[C@H]1C(=O)N2C(C(=O)O)=C(S[C@@H]3CCN(CC4CCNCC4(C)C)C3)[C@H](C)[C@H]12 (stereo partly drawn) [Example 65, (4R,5S,6S)-3-(((3R)-1-((3,3-dimethylpiperidin-4-yl)methyl)pyrrolidin-3-yl)thio)-6-((R)-1-hydroxyethyl)-4-methyl-7-oxo-1-azabicyclo[3.2.0]hept-2-ene-2-carboxylic acid]",8 to 32,< 1,< 1,1 to 4,1 to 4,1 to 4,1 to 4
"CNC1CCC(CN2CC(SC3=C(C(=O)O)N4C(=O)[C@H]([C@@H](C)O)[C@H]4[C@H]3C)C2)CC1 (stereo partly drawn) [Example 66, (4R,5S,6S)-6-((R)-1-hydroxyethyl)-4-methyl-3-((1-(((1s,4S)-4-(methylamino)cyclohexyl)methyl)azetidin-3-yl)thio)-7-oxo-1-azabicyclo[3.2.0]hept-2-ene-2-carboxylic acid]",1 to 4,< 1,< 1,1 to 4,1 to 4,1 to 4,1 to 4
"C[C@@H](O)[C@H]1C(=O)N2C(C(=O)O)=C(SC3CN(C[C@H]4CC[C@H](NC(=N)N)CC4)C3)[C@H](C)[C@H]12 [Example 67, (4R,5S,6S)-3-((1-(((1r,4R)-4-guanidinocyclohexyl)methyl)azetidin-3-yl)thio)-6-((R)-1-hydroxyethyl)-4-methyl-7-oxo-1-azabicyclo[3.2.0]hept-2-ene-2-carboxylic acid]",1 to 4,< 1,< 1,1 to 4,1 to 4,1 to 4,< 1
"CN[C@H]1CC[C@H](CN2CC(SC3=C(C(=O)O)N4C(=O)[C@H]([C@@H](C)O)[C@H]4[C@H]3C)C2)CC1 [Example 68, (4R,5S,6S)-6-((R)-1-hydroxyethyl)-4-methyl-3-((1-(((1r,4R)-4-(methylamino)cyclohexyl)methyl)azetidin-3-yl)thio)-7-oxo-1-azabicyclo[3.2.0]hept-2-ene-2-carboxylic acid]",1 to 4,< 1,< 1,1 to 4,1 to 4,1 to 4,1 to 4
"CCN[C@H]1CC[C@H](CN2CC(SC3=C(C(=O)O)N4C(=O)[C@H]([C@@H](C)O)[C@H]4[C@H]3C)C2)CC1 [Example 69, (4R,5S,6S)-3-((1-(((1r,4R)-4-(ethylamino)cyclohexyl)methyl)azetidin-3-yl)thio)-6-((R)-1-hydroxyethyl)-4-methyl-7-oxo-1-azabicyclo[3.2.0]hept-2-ene-2-carboxylic acid]",1 to 4,< 1,< 1,1 to 4,1 to 4,1 to 4,1 to 4
